The results in this text go back to patent US20090326072A1, “USE OF 2-(2-NITRO-4-TRIFLUOROMETHYLBENZOYL)-l,3- CYCLOHEXANEDIONE IN THE TREATMENT OF PARKINSON'S DISEASE” (priority 2005, published 2009).

Entries after “also recorded” stand apart in the source; their conditions may differ. Read-outs that look alike come from different tables or passages of the source.

In one experiment the test system is plasma tyrosine. Briefly: Plasma tyrosine concentration kinetic profile in the rat following a single oral dose. The class given is in vivo. Conditions: single oral dose 10 mg/kg. As for the experimental part:
The plasma tyrosine concentration kinetic profile in the rat was determined for each of the HPPD inhibitor test compounds by administering a single oral dose to 10-12 week old male Sprague Dawley rats. Compounds 3.20, 3.13 and 3.26 were dosed at 2 mg/kg in 1% carboxymethylcellulose (1% CMC) vehicle, whilst compounds 3.22, 3.12, 3.15, 3.18, 3.23, 3.21, 3.11, 3.01, 3.24 and 3.25 were administered at 10 mg/kg in 1% CMC.
Blood samples to determine plasma tyrosine concentration were obtained at frequent intervals during the first 24 hours post-dose, and at 48 hours post-dose. These samples were either compared with blood samples obtained from control rats which only received an equivalent volume of the vehicle, 1% CMC, or by comparison with control samples obtained from the rats 1 hour prior to dosing with test the compound. Prior to the analysis of the samples for plasma tyrosine concentration, the blood samples were centrifuged at 1800 g for 10 minutes at 4° C. The plasma was collected and then filtered through a centrifugal micro partition device at 1500 g for 30 minutes at 4° C. The filtered plasma was then divided into two aliquots and stored frozen at −70° C. for subsequent gradient reverse phase high performance liquid chromatographic (HPLC) analysis of plasma tyrosine. Aliquots of plasma were analysed by HPLC using a 250×4.6 mm Hichrom S5ODS2 column at 30° C., eluted with a mobile phase of water/acetonitrile/trifluoroacetic acid (950:50:2 v/v/v) at a flow rate of 1 ml/min. Detection was by a diode array detector at 274 nm. Appropriate tyrosine standards were run alongside the samples for calibration purposes.
The plasma tyrosine concentration kinetic profile for the test compounds 3.20, 3.13 and 3.26 are shown at the time points 1, 2, 4, 6, 12, 24 and 48 hours post-dose in Table 1.1. The data shown are the mean±standard deviation (n=4), except for the 6 hour time point where the data were obtained from n=3 rats for the control and 3.26 groups.
The plasma tyrosine concentration kinetic profile for the test compounds 3.22, 3.12, 3.15, 3.18, 3.23, 3.21, 3.11, 3.01, 3.24 and 3.25 are shown at the time points −1 hour (pre-dose control), 1, 3, 6, 12, 24 and 48 hours post-dose, in Tables 1.2 and 1.3. The data shown are the mean±standard deviation (n=3), except for the −1 hour time point with compound 3.23, where n=2 (Table 1.2), and for the 3 and 6 hour time points with compound 3.21, where n=2 (Table 1.3).

The target of experiment [1] is T1, 4-hydroxyphenyl pyruvate dioxygenase (HPPD) (Rattus norvegicus, UniProt P32755).
T1 construct: rat liver cytosol (2.7 mg of protein/ml incubate); from tissue; host or cells: rat liver (cytosol, 110,000 g supernatant)
T1 sequence (P32755 whole entry): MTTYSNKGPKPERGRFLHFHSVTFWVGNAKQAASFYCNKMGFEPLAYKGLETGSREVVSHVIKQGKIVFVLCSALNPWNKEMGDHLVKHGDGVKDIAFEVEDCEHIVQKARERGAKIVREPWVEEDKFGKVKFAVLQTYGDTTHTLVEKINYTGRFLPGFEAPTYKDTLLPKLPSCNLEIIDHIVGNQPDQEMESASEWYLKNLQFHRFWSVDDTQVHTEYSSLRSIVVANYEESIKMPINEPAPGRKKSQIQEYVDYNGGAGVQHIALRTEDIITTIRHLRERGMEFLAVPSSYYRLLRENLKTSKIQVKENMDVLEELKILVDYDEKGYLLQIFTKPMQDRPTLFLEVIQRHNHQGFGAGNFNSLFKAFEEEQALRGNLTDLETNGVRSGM
The experiment can be described thus: Determination of 4-hydroxyphenyl pyruvate dioxygenase (HPPD) enzyme activity in vitro (rate of oxygen consumption, rat liver cytosol). It is filed as biochemical. Conditions: for inhibition at 0.1 µM: read-out: % Inhibition at 100 nM. How it is done:
The principle of the assay is that 4-hydroxyphenyl pyruvate dioxygenase (HPPD), an enzyme that participates in the catabolism of tyrosine, catalyses the oxidative decarboxylation and rearrangement of 4-hydroxyphenylpyruvate (HPPA) to homogentisate, with the incorporation of both atoms of molecular oxygen into the product.
Rat liver was homogenised in buffer of the following composition; 0.25 M Sucrose, 5.4 mM EDTA, 20 mM Tris base, pH 7.4, (25% homogenate) using 6 passes of a Potter type homogeniser. The homogenate was then centrifuged at 1,800 g for 10 minutes at 4° C., the pellet was discarded and the supernatant centrifuged at 17,000 g for a further 15 minutes at 4° C. The pellet was then discarded and the supernatant centrifuged at 110,000 g for 80 minutes at 4° C. The supernatant containing the HPPD enzyme from this 110,000 g spin was collected and stored frozen at −70° C. and used in the assays of the test compounds (see below).
Prior to the start of the enzymatic reaction by the addition of HPPA substrate, the enzyme and test compound (inhibitor) were incubated together for 3 minutes.
In cases where the effects of several concentrations of an inhibitor were investigated, an IC50 value (the half-maximal inhibitory concentration of test compound) was determined by plotting the data using a non-linear regression curve-fitting program using a GraphPad Prism™ software package.
Data are expressed as mean values from two experiments except where indicated. Where appropriate the values are expressed as the mean±standard deviation.

Experiment [2] concerns AMPT rat model of Parkinson's disease. The experiment can be described thus: AMPT rat model of Parkinson's disease (catalepsy descent latency and centre rearing counts). The class given is in vivo. Particulars: for Mean Centre Rearing Counts / Mean Catalepsy Descent Latency (s): 8 h post AMPT; for reversal of AMPT induced catalepsy (in words) / reversal of AMPT induced deficits in mean centre rearing counts (in words): single oral dose 10 mg/kg, -16 or -1 hours. How it is done: AMPT is a competitive inhibitor of tyrosine hydroxylase. Rats dosed with >150 mg/kg AMPT develop parkinsonian-like behavior and locomotor deficits (e.g. catalepsy and reduced rearing activity) within hours owing to the depletion of striatal dopamine concentration as a consequence of the reduced flux through the dopamine synthetic pathway. […] Indian J. Exp. Biol. 41, 1264-1268).
The effect was compared with appropriate vehicle control groups (oral vehicle was 1% carboxymethylcellulose; CMC) and a group that received a 150 mg/kg i.p. dose of L-dopa.
Eight hours after AMPT (or vehicle) administration rats were assessed for catalepsy and centre rearing activity. During the catalepsy test, the front paws of the rat were placed over a horizontal bar suspended 9 cm off the floor. The time taken for the rat to get off the bar (descent latency) was measured with a maximum time of 3 minutes being allowed. Centre rearing counts were determined over a 1 hour monitoring period using an automated activity monitoring system (AM1053). This system used an array of infrared beams to determine the activity and mobility of each animal. Each cage had 48 infrared beams, 24 on each of two levels arranged in an 8×16, 1″ (25.4 mm) pitch grid. The lower grid measured horizontal x, y movement, whilst the upper grid measured rearing movement. The activity detector operated by counting the number of times the beams changed from unbroken to broken and then incrementing the relevant counters.
These groups were compared to a positive control group (6) dosed with 225 mg/kg AMPT i.p.+150 mg/kg L-dopa i.p. 6.5 hour post AMPT dose. L-dopa was administered with a peripheral dopa decarboxylase inhibitor (benserazide), at 100 mg/kg i.p.
In a second and third series of experiments, the efficacy of eight other HPPD inhibitor test compounds were assessed in the AMPT rat model of Parkinson's disease (Tables 1.5 & 1.6). Male Sprague-Dawley rats (300-350 g) were administered a single i.p. dose of 225 mg/kg AMPT and a single oral dose of 10 mg/kg of the HPPD inhibitor test compound was administered either 1 or 16 hours prior to (−16 or −1 hours) AMPT administration. Behavioral assessment (catalepsy and centre rearing counts) was conducted 8 hours post AMPT administration. The effect was compared with a vehicle control group and a group receiving AMPT alone.

Setting [3] is: Table 1.5: 225 mg/kg AMPT i.p. + 10 mg/kg oral at -16 hours.
Where [4] appears, read: 100 nM test compound, rat liver cytosol, 3 min pre-incubation.
The mark [5] stands for this setting: Table 1.6: 225 mg/kg AMPT i.p. + 10 mg/kg oral at -1 hour.
The mark [6] stands for this setting: Table 1.6: 225 mg/kg AMPT i.p. + 10 mg/kg oral at -16 hours.

On to `CS(=O)(=O)c1ccc(C(=O)C2C(=O)CCCC2=O)c(Cl)c1COCC(F)(F)F` [Compound 3.18], for which the “Plasma Tyrosine Concentration” value in the experiment with plasma tyrosine (1 hour post-dose) worked out at 177 ± 3.5 nmol/mL; in the experiment on plasma tyrosine (3 hours post-dose) it was 303 ± 3.9 nmol/mL; in the experiment with plasma tyrosine (6 hours post-dose) it was 504 ± 29.4 nmol/mL; in the experiment with plasma tyrosine (12 hours post-dose), 1027 ± 62.7 nmol/mL; in the experiment on plasma tyrosine (24 hours post-dose), 1987 ± 133.0 nmol/mL; with plasma tyrosine (48 hours post-dose), 313 ± 216.6 nmol/mL. Further, in experiment [1], the inhibition (usually the percentage by which the read-out fell short of the control) at 0.1 µM was 31%. Also, the “Mean Centre Rearing Counts” value in experiment [2] (setting [3]) was 359 ± 116^+ counts. Besides, the “reversal of AMPT induced catalepsy (in words)” value in experiment [2] (10 mg/kg) was “substantially reversed; also recorded: effective in reversing”. Moreover, in experiment [2] (10 mg/kg), the “reversal of AMPT induced deficits in mean centre rearing counts (in words)” value (from here on “reversal of AMPT induced deficits”) is recorded as “reached statistical significance; also recorded: either partially or completely reversing”.

Turning to `CS(=O)(=O)c1cc(C(F)(F)F)ccc1C(=O)C(C#N)C(=O)C1CC1` (centres unmarked) [Compound 3.15], the “Plasma Tyrosine Concentration” value was 177 ± 21.7 nmol/mL with plasma tyrosine (1 hour post-dose); 299 ± 18.8 nmol/mL in the experiment with plasma tyrosine (3 hours post-dose); 458 ± 29.4 nmol/mL with plasma tyrosine (6 hours post-dose); 671 ± 119.7 nmol/mL in the experiment with plasma tyrosine (12 hours post-dose); 228 ± 76.6 nmol/mL in the experiment on plasma tyrosine (24 hours post-dose); 117 ± 11.3 nmol/mL with plasma tyrosine (48 hours post-dose). Moreover, the inhibition at 0.1 µM in experiment [1] (setting [4]) was found to be 37%. Further, the “Mean Catalepsy Descent Latency (s)” value in experiment [2] (setting [5]) is given as 23 ± 8.0^+++ s. The “Mean Centre Rearing Counts” value in experiment [2] (setting [5]) came out at 199 ± 54 counts. The “reversal of AMPT induced deficits” value in experiment [2] is reported as “either partially or completely reversing”. Also, in experiment [2] (10 mg/kg), the “reversal of AMPT induced catalepsy (in words)” value is recorded as “substantially reversed; also recorded: effective in reversing”.

Turning to `CCn1ncc(C(=O)c2ccc(S(C)(=O)=O)c(OCCOC)c2Cl)c1O` [Compound 3.12], the “Plasma Tyrosine Concentration” value in the experiment on plasma tyrosine (1 hour post-dose) stood at 168 ± 20.1 nmol/mL; with plasma tyrosine (3 hours post-dose), 289 ± 35.6 nmol/mL; in the experiment on plasma tyrosine (6 hours post-dose), 451 ± 72.7 nmol/mL; in the experiment with plasma tyrosine (12 hours post-dose), 969 ± 65.2 nmol/mL; in the experiment on plasma tyrosine (24 hours post-dose), 1543 ± 91.1 nmol/mL; with plasma tyrosine (48 hours post-dose), 114 ± 8.0 nmol/mL. Also, the inhibition at 0.1 µM in experiment [1] (setting [4]) was determined as 40%. For the same compound, the “Mean Catalepsy Descent Latency (s)” value in experiment [2] (setting [6]) is listed as 16 ± 4.2^+++ s. Further, the “Mean Centre Rearing Counts” value in experiment [2] (setting [6]) is listed as 211 ± 65 counts. Also, in experiment [2], the “reversal of AMPT induced deficits” value was “either partially or completely reversing”. Moreover, the “reversal of AMPT induced catalepsy (in words)” value in experiment [2] (10 mg/kg) is recorded as “substantially reversed; also recorded: effective in reversing”.

In the case of `Cc1nc(C(F)(F)F)ccc1C(=O)C1C(=O)C2CCC(C2)C1=O.[K+]` (centres unmarked) [Compound 3.24], the “Plasma Tyrosine Concentration” value is 184 ± 27.8 nmol/mL in the experiment with plasma tyrosine (1 hour post-dose); 313 ± 49.9 nmol/mL in the experiment on plasma tyrosine (3 hours post-dose); 548 ± 83.9 nmol/mL in the experiment with plasma tyrosine (6 hours post-dose); 1008 ± 85.2 nmol/mL with plasma tyrosine (12 hours post-dose); 2110 ± 111.1 nmol/mL in the experiment with plasma tyrosine (24 hours post-dose); 2571 ± 167.7 nmol/mL in the experiment with plasma tyrosine (48 hours post-dose). Further, the inhibition at 0.1 µM in experiment [1] amounted to 5%. Also, the inhibition at 0.3 µM in experiment [1] (read-out: % inhibition at 300 nM) was 34%. The “Mean Catalepsy Descent Latency (s)” value in experiment [2] (setting [3]) is listed as 15 ± 8.9^+++ s. Also, the “Mean Centre Rearing Counts” value in experiment [2] (setting [3]) is 189 ± 36 counts. The “reversal of AMPT induced deficits” value in experiment [2] is on record as “either partially or completely reversing”. The “reversal of AMPT induced catalepsy (in words)” value in experiment [2] (10 mg/kg) is “substantially reversed; also recorded: effective in reversing”.
